Test results: patent US20050191283A1, “Methods of treating NFAT-related disorders” (priority 2003, published 2005)
“Also recorded” adds a separate entry of the source.

Assays:
[1] = test system: IFN-γ expression in UCB T lymphocytes; test: Intracellular IFN-γ staining in gated CD3+ cells of UCB MNC; type: cell-based, human; details: for average percentage of T cells producing IFN-γ: whole UCB MNC
Description: (§1) Human umbilical cord blood from full-term deliveries by vaginal or caesarean sections and adult peripheral blood from healthy donors was collected according to guidelines by the Institutional Review Board at University Hospitals of Cleveland. Mononuclear cells (MNC) were isolated by gradient centrifugation, as previously described (6) and used immediately fresh.
(§2) Total MNC were stimulated in bulk culture as previously described (6). Briefly, 2×10^6 cells/ml were stimulated with 2 μg/ml of concanavalin A (ConA) (Sigma Chemical Co, St Louis, Mo.) in complete RPMI medium (Gibco BRL, Gaithersburg, Md.), containing 10% fetal bovine serum (Gibco BRL), 1 mM Sodium-pyruvate, 0.1 mM nonessential amino acids, 10 mM HEPES and 58 μM 2-mercaptoethanol (Sigma Chemical Co), in presence or absence of the manufacturer's recommended concentration of 1 μg/ml of cyclosporin A (CsA) (Sigma Chemical Co), as previously described (7). Where specified, IFN-γ (Roche, Indianapolis, Ind.) was added at indicated concentrations, or neutralizing anti-IFN-γ antibody (R&D Systems, Minneapolis, Minn.) was added at a concentration of 0.25-2 μg/ml. Purified T cells were stimulated as described (26), with plate-bound anti-CD3 (1 μg/ml) and soluble anti-CD28 (5 μg/ml) monoclonal antibodies. Elispot assays were performed as previously described (27). Briefly, ImmunoSpot plates M200 (Cellular Technology Limited, Cleveland Ohio) were coated with capture antibody for IFN-γ M700A-E (2 μg/ml; Endogen, Woburn, Mass.), washed and MNC were plated in complete RPMI medium with 5% ABO serum (Gemini Bioproducts, Calmasas, Calif.)+1% L-glutamine, at 3×10^5 per well. Cells were stimulated with irradiated 3×10^5 T-cell-depleted MNC from a healthy adult or cord blood. T cells were depleted with RosetteSep (StemCell Technologies, Vancouver, Canada), according to manufacturer's directions. After 24 h of stimulation, plates were washed and incubated over night with secondary biotinylated detection antibodies against IFN-γ M701 (0.5 μg/ml; Endogen, Woburn, Mass.). Streptavidin-HRP conjugate (Dako Corp., Carpenteria Calif.) was added and the spots were visualized using the HRP-substrate AEC (Pierce Pharmaceuticals, Rockford Ill.), and subjected to image analysis on a Series 1 ImmunoSpot Image Analyzer (Cellular Technology, Cleveland, Ohio) specifically designed for automated evaluation of ELISPOTs.
MNC from UCB were depleted of monocytes by using monoclonal antibody against CD11b (Pharmingen), followed by anti-IgG magnetic bead (Dynal) depletion as above, or by using anti-CD14 microbeads (Miltenyi Biotech Inc., Auburn, Calif.) and AutoMACS (Miltenyi Biotech Inc.), according to manufacturer's protocol.
Intracellular IFN-γ staining was performed as described previously (6, 7). […] 1×10^6 cells were stained for 30 minutes with the following antibodies: anti-IFN-γ-FITC or -PE (R&D Systems), anti-CD3-APC (Pharmingen), and anti-CD69-PE (Pharmingen) or -PerCP (Becton Dickinson, San Jose, Calif.) and the corresponding isotype controls (Pharmingen, Becton Dickinson). 20,000-80,000 events were acquired on a calibrated Elite ESP flow cytometer (Coulter, Miami, Fla.) and data were analyzed with WinList software (Verity Software House Inc, Topsham, Minn.). For intracellular staining of NFATc2, the same monoclonal antibody clone as used in immunoblotting was custom FITC-conjugated (Transduction Laboratories) and used at a titrated concentration of 1 μg/10^6 cells.

[2] = test system: NFATc2 expression in UCB T lymphocytes; test: NFATc2 protein expression by intracellular flow cytometry in gated CD3+ cells of UCB MNC; type: cell-based, human; details: for NFATc2 expression (dual staining for NFATc2 and IFN-γ): ConA alone or ConA + 100 U/ml IFN-γ
Description: as §1, §2
Intracellular IFN-γ staining was performed as described previously (6, 7). Briefly, MNC were stimulated for the indicated time points, for the last 6-8 h in the presence of 5 μg/ml of Brefeldin A (Sigma Chemical Co), and permeabilized. […] 20,000-80,000 events were acquired on a calibrated Elite ESP flow cytometer (Coulter, Miami, Fla.) and data were analyzed with WinList software (Verity Software House Inc, Topsham, Minn.). […]

[3] = test system: IFN-γ expression in purified adult T cells; test: Intracellular IFN-γ staining in purified adult T cells; type: cell-based, human; details: anti-CD3/CD28 24 h, exogenous IFN-γ 100 U/ml
Description: as §1
(§3) Total MNC were stimulated in bulk culture as previously described (6). Briefly, 2×10^6 cells/ml were stimulated with 2 μg/ml of concanavalin A (ConA) (Sigma Chemical Co, St Louis, Mo.) in complete RPMI medium (Gibco BRL, Gaithersburg, Md.), containing 10% fetal bovine serum (Gibco BRL), 1 mM Sodium-pyruvate, 0.1 mM nonessential amino acids, 10 mM HEPES and 58 μM 2-mercaptoethanol (Sigma Chemical Co), in presence or absence of the manufacturer's recommended concentration of 1 μg/ml of cyclosporin A (CsA) (Sigma Chemical Co), as previously described (7). Where specified, IFN-γ (Roche, Indianapolis, Ind.) was added at indicated concentrations, or neutralizing anti-IFN-γ antibody (R&D Systems, Minneapolis, Minn.) was added at a concentration of 0.25-2 μg/ml. […]
(§4) Intracellular IFN-γ staining was performed as described previously (6, 7). […] 20,000-80,000 events were acquired on a calibrated Elite ESP flow cytometer (Coulter, Miami, Fla.) and data were analyzed with WinList software (Verity Software House Inc, Topsham, Minn.). […]

[4] = test system: NFATc2 expression in adult T lymphocytes; test: NFATc2 protein expression by intracellular flow cytometry in gated CD3+ cells of stimulated adult MNC; type: cell-based, human; details: adult MNC stimulated 24 h, exogenous IFN-γ 100 U/ml
Description: as §1, §3, §4

[5] = test system: IFN-γ expression in purified UCB T cells; test: Intracellular IFN-γ staining in purified UCB T cells; type: cell-based, human
Description: as §1, §3, §4

[6] = test system: IFN-γ expression by UCB MNC; details: exogenous IL-12 added to the stimulation conditions; cited from earlier work
[7] = experiment 1, whole UCB MNC, 24 h
[8] = experiment 2, whole UCB MNC, 24 h
[9] = experiment 3, whole UCB MNC, 24 h
[10] = experiment 4, whole UCB MNC, 24 h

C[C@H]1CCC/C=C/[C@@H]2C[C@H](O)C[C@H]2[C@H](O)/C=C/C(=O)O1 [Brefeldin A, reference compound]
upregulation of IFN-γ in UCB T cells ([1]; UCB MNC, ConA ± IFN-γ 100 U/ml, BFA added immediately and for the whole stimulation (BFA 24 h)): no upregulation of IFN-γ could be observed

IFN-γ: IFN-γ (Roche, Indianapolis, Ind.) added exogenously during stimulation
NFATc2 protein expression ([2]; ConA 16 h, added IFN-γ 10-1,000 U/ml, gated CD3+ cells): increased in a dose dependent manner | NFATc2 expression (dual staining for NFATc2 and IFN-γ) [2]: strong increases of NFATc2 expression | NFATc2 levels ([2]; absence of stimulation, IFN-γ alone 100 U/ml): intermediate between unstimulated and stimulated T lymphocytes; also recorded: only slightly increased NFATc2 expression | IFN-γ expression [3]: no increase in IFN-γ expression was observed | IFN-γ-mediated rescue effect ([1]; UCB MNC depleted of B cells and NK cells): did not result in a significant loss of the IFN-γ-mediated rescue effect | average percentage of IFN-γ producing T cells ([1]; UCB MNC depleted of monocytes prior to stimulation, ConA + IFN-γ, n=4): 1.0% | percentages of IFN-γ-expressing T lymphocytes ([1]; UCB MNC, ConA 24 h, exogenous IFN-γ 100 U/ml): rose close to that measured in adult T lymphocytes | lowest dose of exogenous IFN-γ with effective IFN-γ rescue ([1]; UCB MNC, ConA stimulation, dose titrated down): 50 U/ml | IFN-γ expression ([1]; UCB MNC, no stimulation, IFN-γ alone 100 U/ml): did not stimulate IFN-γ expression | percentages of CD3+ cells positive for IFN-γ staining ([1]; experiment 1, UCB MNC depleted of CD11b, 24 h): 0.89% | percentages of CD3+ cells positive for IFN-γ staining [1, 7]: 1.38% | percentages of CD3+ cells positive for IFN-γ staining ([1]; experiment 2, UCB MNC depleted of CD11b, 24 h): 0.92% | percentages of CD3+ cells positive for IFN-γ staining [1, 8]: 1.41% | percentages of CD3+ cells positive for IFN-γ staining ([1]; experiment 3, UCB MNC depleted of CD11b, 24 h): 1.30% | percentages of CD3+ cells positive for IFN-γ staining [1, 9]: 1.74% | percentages of CD3+ cells positive for IFN-γ staining ([1]; experiment 4, UCB MNC depleted of CD14, 24 h): 1.07% | percentages of CD3+ cells positive for IFN-γ staining [1, 10]: 1.83% | average percentage of T cells producing IFN-γ ([1]; n=4): 1.6% | NFATc2 expression [4]: further upregulation of NFATc2 | IFN-γ rescue effect ([5]; ConA, IFN-γ added): no IFN-γ rescue effect was observed | IFN-γ expression ([5]; anti-CD3/CD28 24 h, exogenous IFN-γ 100 U/ml): could not be rescued

TNF-A
upregulation of IFN-γ expression ([1]; UCB MNC, ConA 24 h, TNF-A (1 ng/ml) or IL-2 added in place of IFN-γ): did not result in upregulation of IFN-γ expression

concanavalin A [ConA, reference compound]
NFATc2 expression (dual staining for NFATc2 and IFN-γ) [2]: increase in NFATc2 upregulation | IFN-γ expression ([1]; UCB MNC, ConA alone): only a slight increase in IFN-γ expression | percentages of CD3+ cells positive for IFN-γ staining [1, 7]: 0.96% | percentages of CD3+ cells positive for IFN-γ staining [1, 8]: 0.78% | percentages of CD3+ cells positive for IFN-γ staining [1, 9]: 0.96% | percentages of CD3+ cells positive for IFN-γ staining [1, 10]: 1.05% | average percentage of T cells producing IFN-γ ([1]; n=4): 0.9%

B1: IL-12: exogenous cytokine, literature result (ref 44) (protein, UniProt P29459 23-219; P29460 23-328, looked up)
Interleukin-12 subunit alpha: RNLPVATPDPGMFPCLHHSQNLLRAVSNMLQKARQTLEFYPCTSEEIDHEDITKDKTSTVEACLPLELTKNESCLNSRETSFITNGSCLASRKTSFMMALCLSSIYEDLKMYQVEFKTMNAKLLMDPKRQIFLDQNMLAVIDELMQALNFNSETVPQKSSLEEPDFYKTKIKLCILLHAFRIRAVTIDRVMSYLNAS
Interleukin-12 subunit beta: IWELKKDVYVVELDWYPDAPGEMVVLTCDTPEEDGITWTLDQSSEVLGSGKTLTIQVKEFGDAGQYTCHKGGEVLSHSLLLLHKKEDGIWSTDILKDQKEPKNKTFLRCEAKNYSGRFTCWWLTTISTDLTFSVKSSRGSSDPQGVTCGAATLSAERVRGDNKEYEYSVECQEDSACPAAEESLPIEVMVDAVHKLKYENYTSSFFIRDIIKPDPPKNLQLKPLKNSRQVEVSWEYPDTWSTPHSYFSLTFCVQVQGKSKREKKDRVFTDKTSATVICRKNASISVRAQDRYYSSSWSEWASVPCS
IFN-γ expression by UCB MNC [6]: could be increased
